Test results from the CheMixHub ionic liquid set.

Assay: xn = mol fraction of the nth substance listed

CCOCn1cc[n+](C)c1.O=S(=O)([N-]S(=O)(=O)C(F)(F)F)C(F)(F)F + O
Conditions | viscosity [mPa·s]
333 K, 101 kPa, x1 = 0.8415 | 11.7

CCCCCn1cc[n+](CCCCC)c1.O=S(=O)([N-]S(=O)(=O)C(F)(F)F)C(F)(F)F + O
100 kPa, x2 = 0.1575
Conditions | viscosity [mPa·s]
313.15 K | 35.17
338.15 K | 15.44
358.15 K | 9.31

C[N+](C)(C)CCO.O=S(=O)([N-]S(=O)(=O)C(F)(F)F)C(F)(F)F + OCCCO
101 kPa
Conditions | viscosity [mPa·s]
313.15 K, x2 = 0.1272 | 47.2
313.15 K, x2 = 0.4106 | 30
313.15 K, x2 = 0.5712 | 24.9
318.15 K, x2 = 0 | 46.8
328.15 K, x2 = 0 | 33.4
333.15 K, x2 = 0.1272 | 23.9
333.15 K, x2 = 0.2297 | 20.5
333.15 K, x2 = 0.6946 | 11.27
338.15 K, x2 = 0.2297 | 17.8
338.15 K, x2 = 0.6946 | 9.76
338.15 K, x2 = 0.9474 | 8.48
343.15 K, x2 = 0.2297 | 15.62
348.15 K, x2 = 0 | 19.1
348.15 K, x2 = 0.5712 | 8.63
353.15 K, x2 = 0.8367 | 5.98

CCCCCC[n+]1ccccc1.O=[N+]([O-])[O-] + CC#N
298.15 K, 101 kPa
Conditions | viscosity [mPa·s]
x1 = 0.004149 | 0.5468
x1 = 0.008252 | 0.6095
x1 = 0.0124 | 0.6478
x1 = 0.01616 | 0.6731
x1 = 0.02021 | 0.6913
x1 = 0.02422 | 0.7042
x1 = 0.02814 | 0.7132
x1 = 0.032 | 0.7169
x1 = 0.03564 | 0.7185
x1 = 0.03937 | 0.7176

CCOCC[n+]1ccn(CCC#N)c1.O=S(=O)([N-]S(=O)(=O)C(F)(F)F)C(F)(F)F + CS(C)=O
101.3 kPa
Conditions | electrical conductivity [S/m] | viscosity [mPa·s]
293.15 K, x1 = 0.0989 | 0.00113 | –
293.15 K, x1 = 0.1981 | 0.00401 | –
293.15 K, x1 = 0.2776 | 0.00964 | –
293.15 K, x1 = 0.597 | 0.0383 | 59.7
293.15 K, x1 = 0.798 | – | 102.3
293.15 K, x1 = 0.89 | 0.0703 | 210.3
303.15 K, x1 = 0.0989 | 0.00132 | –
303.15 K, x1 = 0.1981 | 0.00478 | –
303.15 K, x1 = 0.721 | 0.0577 | 40.7
313.15 K, x1 = 0.0989 | 0.00155 | –
313.15 K, x1 = 0.1981 | 0.00607 | –
323.15 K, x1 = 0.0989 | 0.00196 | 3.457
323.15 K, x1 = 0.1981 | 0.00772 | 4.04
323.15 K, x1 = 0.3971 | 0.0389 | 9.78
323.15 K, x1 = 0.5029 | 0.0621 | 13.05
323.15 K, x1 = 0.721 | 0.108 | 20.71

CCCC[n+]1ccc(C)cc1.F[B-](F)(F)F + CO
101 kPa
Conditions | viscosity [mPa·s]
298.15 K, x2 = 0 | 196
298.15 K, x2 = 0.4287 | 19.3
298.15 K, x2 = 0.5246 | 11.58
298.15 K, x2 = 0.9671 | 0.729
313.15 K, x2 = 0.4287 | 11.94
313.15 K, x2 = 0.718 | 2.98
313.15 K, x2 = 0.8803 | 1.13
323.15 K, x1 = 0.01507 | 0.447
323.15 K, x2 = 0.8313 | 1.31
323.15 K, x2 = 0.8803 | 0.972
